Results taken from paper PMC8844822, “SARM1 is a multi-functional NAD(P)ase with prominent base exchange activity, all regulated bymultiple physiologically relevant NAD metabolites” (iScience, 2022).
Where two headings read alike, the source gives them in different places.

Tests used:
hCD38 [1] = biological target: T1, hCD38 (Homo sapiens, UniProt P28907); experiment: Base exchange reactions at neutral pH (HPLC); assay type: biochemical; conditions: NAD […] alone or + AcPyr 2 mM / Vacor 0.5 mM / Na 2 mM
T1 construct: a soluble fragment Val43-Ile300 with 6x-His tag at C terminus; 6xHis (C); purchased R&D Systems
T1 sequence (P28907 43-300): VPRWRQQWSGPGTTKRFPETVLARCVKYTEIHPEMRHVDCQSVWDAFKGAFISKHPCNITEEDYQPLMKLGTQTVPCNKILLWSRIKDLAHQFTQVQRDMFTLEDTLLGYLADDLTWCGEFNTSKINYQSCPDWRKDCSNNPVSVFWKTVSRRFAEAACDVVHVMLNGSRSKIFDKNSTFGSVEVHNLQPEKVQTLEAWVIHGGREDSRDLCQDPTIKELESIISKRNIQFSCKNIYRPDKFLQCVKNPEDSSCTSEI
Method: (§1) Multiple time stops from individual assays as above were analyzed for linearity, then extents of hydrolysis (white bars), cyclization (red bars), or base exchange (black bars) were calculated from each corresponding product as shown in Figure 1B and STAR methods. […] See also Figures S3–S5, and Table S1
(§2) hSARM1 species were routinely assayed by the NAD/NADH-Glo^TM Assay (Promega) while both Aplysia cyclase and CD38 were assayed by fluorometry using ϵNAD ([Orsomando et al., 2000]). […] Other reagents used in addition to, or in place of those above are detailed in text or in figure legends, for example metal ions, free bases, dinucleotide analogues, mononucleotides, and ribosides. Assays were all carried out at 25°C except for temperature studies. Reactions were stopped by HClO4/K2CO3 and analysed by C18-HPLC as reported ([Mori et al., 2014]). Only the acid labile NADH and NADPH were treated with 1 N NaOH and neutralized using 1:1 vol of 1.73 M KH2CO3 while the highly hydrophobic metabolites vacor, VAD, VMN and VR, were analysed by a modified C18-HPLC method ([Buonvicino et al., 2018]). Reaction products were quantified from peak areas (see Figure 2A) based on coelution with standards (except for cyclic products from NAD analogues that were not available and were attributed based on UV-spectra and retention times as predicted). Rates were calculated as follows. Hydrolysis and cyclization were measured from product generation from the respective individual dinucleotide substrate used, e.g., free and cyclic ADP-ribosyl moieties from NAD (Figure 1B). A basal value for hydrolysis/cyclization was taken as sum of these latter two products. In addition to that value, base exchange or transglycosidation was calculated from the expected dinucleotide analog formed in the presence of the corresponding free base, e.g., AcPyrAD from AcPyr and NAD.

hSARM1 full length [2] = biological target: T2, hSARM1 full length (Homo sapiens, UniProt Q6SZW1); experiment: Base exchange reactions at neutral pH (HPLC); assay type: biochemical; conditions: hSARM1 full length, no trigger; NAD […] alone or + AcPyr 2 mM / Vacor 0.5 mM / Na 2 mM; pH 7.5
T2 construct: Human recombinant SARM1 full length proteins (wild-type and E642A mutant); made in house
T2 sequence (Q6SZW1 28-724): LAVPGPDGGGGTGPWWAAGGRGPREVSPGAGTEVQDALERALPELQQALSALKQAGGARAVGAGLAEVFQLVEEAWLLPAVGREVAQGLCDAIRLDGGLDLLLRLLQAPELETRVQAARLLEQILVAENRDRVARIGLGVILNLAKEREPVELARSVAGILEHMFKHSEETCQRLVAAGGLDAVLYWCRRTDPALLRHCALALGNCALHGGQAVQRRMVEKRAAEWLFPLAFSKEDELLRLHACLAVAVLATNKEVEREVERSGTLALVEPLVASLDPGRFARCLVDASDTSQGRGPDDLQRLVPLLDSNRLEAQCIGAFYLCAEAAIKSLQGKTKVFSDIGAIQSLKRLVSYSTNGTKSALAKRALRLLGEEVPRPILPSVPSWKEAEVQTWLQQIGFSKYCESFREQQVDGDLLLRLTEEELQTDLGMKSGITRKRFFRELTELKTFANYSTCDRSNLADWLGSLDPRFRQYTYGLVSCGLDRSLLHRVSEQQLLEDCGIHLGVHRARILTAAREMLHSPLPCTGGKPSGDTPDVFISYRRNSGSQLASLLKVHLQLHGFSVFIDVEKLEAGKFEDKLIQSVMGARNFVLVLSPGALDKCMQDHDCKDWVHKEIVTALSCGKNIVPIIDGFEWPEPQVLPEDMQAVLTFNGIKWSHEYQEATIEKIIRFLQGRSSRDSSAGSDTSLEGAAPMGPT
Method: as §1, §2

[3] = biological target: T3, Aplysia californica ADP ribosyl cyclase (Aplysia californica, UniProt P29241); experiment: Base exchange reactions at neutral pH (HPLC); assay type: biochemical; parameters: purchased Merck A8950; conditions: NAD […] alone or + AcPyr 2 mM / Vacor 0.5 mM / Na 2 mM
T3 sequence (P29241 25-282): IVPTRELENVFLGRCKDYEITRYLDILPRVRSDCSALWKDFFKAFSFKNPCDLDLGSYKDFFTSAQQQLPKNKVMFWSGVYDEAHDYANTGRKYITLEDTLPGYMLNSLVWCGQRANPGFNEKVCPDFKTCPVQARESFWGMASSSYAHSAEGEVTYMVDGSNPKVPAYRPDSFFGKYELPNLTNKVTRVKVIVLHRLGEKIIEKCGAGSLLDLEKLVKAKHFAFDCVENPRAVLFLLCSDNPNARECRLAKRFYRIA
Method: as §1
(§3) Rates were calculated as follows.

hCD38 [4] = biological target: T1, hCD38; experiment: NAD(P)ase activity by HPLC (kinetics, substrates, metal ions); assay type: biochemical
Method: as §2
(§4) The kinetic parameters were calculated from initial rates obtained from replicates via best-fitting analysis using the following Equation 1 for CD38 and Aplysia cyclase, or Equation 2 for hSARM1 SAM-TIR, or Equation 3 for hSARM1 full length(Equation 1) V =Vmax[S]/Km+[S] […] In that case, the resulting single curves were fit to Equation 3 as above to evaluate any competition between NMN and the substrate used (see Table 1).

hSARM1 full length [5] = biological target: T2, hSARM1 full length; experiment: as above; assay type: biochemical; conditions: for basal rate: substrate alone […]
Method: as §2, §4

[6] = biological target: T3, Aplysia californica ADP ribosyl cyclase
Method: as §2, §4

hSARM1 SAM-TIR [7] = biological target: T4, hSARM1 SAM-TIR (Homo sapiens, UniProt Q6SZW1); assay type: biochemical
T4 construct: made in house
T4 sequence (Q6SZW1 409-724): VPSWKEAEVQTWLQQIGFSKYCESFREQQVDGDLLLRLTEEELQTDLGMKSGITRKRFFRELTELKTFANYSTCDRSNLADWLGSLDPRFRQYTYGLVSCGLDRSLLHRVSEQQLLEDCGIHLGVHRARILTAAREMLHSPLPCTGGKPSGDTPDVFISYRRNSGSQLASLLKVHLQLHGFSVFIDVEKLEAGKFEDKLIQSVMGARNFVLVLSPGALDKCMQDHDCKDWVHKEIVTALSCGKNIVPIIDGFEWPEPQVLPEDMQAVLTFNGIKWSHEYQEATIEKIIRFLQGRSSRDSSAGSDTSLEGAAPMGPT
Method: as §2, with “In addition to that value, base exchange or transglycosidation was calculated from the expected dinucleotide analog formed in the presence of the corresponding free base, e.g., AcPyrAD from AcPyr and NAD.” left out

hSARM1 SAM-TIR [8] = biological target: T4, hSARM1 SAM-TIR; experiment: Base exchange reactions at neutral pH (HPLC); assay type: biochemical; conditions: NAD […] alone or + AcPyr 2 mM / Vacor 0.5 mM / Na 2 mM
Method: as §1, §3

NC(=O)c1ccc[n+]([C@@H]2O[C@H](COP(=O)([O-])OP(=O)(O)OC[C@H]3O[C@@H](n4cnc5c(N)ncnc54)[C@H](O)[C@@H]3O)[C@@H](O)[C@H]2O)c1 [NAD, nicotinamide adenine dinucleotide]
rate (hCD38 [1]): 7798 ±1624 mU/mg
rate (hSARM1 full length [2]): 21.8 ±0.30 mU/mg
rate [3]: 14712 ±399 mU/mg
hydrolysis, share of NAD consumption (hCD38 [4]; hCD38): > 98%
specific activity, basal NADase (hydrolysis or cyclization combined) (hCD38 [4]; hCD38, saturating NAD): ~7 U/mg
Ki (hSARM1 full length [5]; SARM1, read-out: Kia): ~300 µM
cyclization, share of total substrate consumption (hSARM1 full length [5]; hSARM1, no free pyridines): ~10%
hydrolysis, share of substrate consumption (hSARM1 full length [5]; hSARM1, no free pyridines): ~90%
specific activity, basal NADase (hydrolysis or cyclization combined) (hSARM1 full length [5]; hSARM1, saturating NAD): ~0.02 U/mg
basal rate (hSARM1 full length [5]; hSARM1 full length 14.6 µg/ml, 30 min, 25 °C (Figure S2)): 15.8 mU/mg
Kis (catalytic site) (hSARM1 full length [5]; hSARM1 full length +NMN 5μM, n=1): >8000 µM
Ki (hSARM1 full length [5]; hSARM1 full length +NMN 5μM, n=1, read-out: Kia (allosteric site)): 385 µM
Kis (catalytic site) (hSARM1 full length [5]; hSARM1 full length +NMN 10μM, n=1): >8000 µM
Ki (hSARM1 full length [5]; hSARM1 full length +NMN 10μM, n=1, read-out: Kia (allosteric site)): 415 µM
Kis (catalytic site) (hSARM1 full length [5]; hSARM1 full length +NMN 20μM, n=1): >8000 µM
Ki (hSARM1 full length [5]; hSARM1 full length +NMN 20μM, n=1, read-out: Kia (allosteric site)): 787 µM
Kis (catalytic site) (hSARM1 full length [5]; hSARM1 full length +NMN 50μM, n=1): >8000 µM
Ki (hSARM1 full length [5]; hSARM1 full length +NMN 50μM, n=1, read-out: Kia (allosteric site)): 1200 µM
basal rate (hSARM1 full length [5]; hSARM1 full length WT 5.4 µg/ml, 6 hours, 25 °C (Figure S3)): 26.4 mU/mg
Kis (inhibition, catalytic site on TIR domain) (hSARM1 full length [5]; hSARM1 full length, no NMN): >8000 µM
Ki (hSARM1 full length [5]; hSARM1 full length, no NMN, read-out: Kia (inhibition, allosteric site on ARM domain)): 324 ± 24.6 µM
NAD concentration at maximum NADase activity (hSARM1 full length [5]; hSARM1 full length, activity falls to almost zero at 4 mM): 0.25 mM
cyclization, share of NAD consumption [6]: > 98%
specific activity, basal NADase (hydrolysis or cyclization combined) ([6]; saturating NAD): ~50 U/mg
Kis (inhibition, catalytic site) (hSARM1 SAM-TIR [7]): >8000 µM
rate (hSARM1 SAM-TIR [8]): 342.4 ±56.3 mU/mg
